Laboratory results: patent US7176192B2, “Method for treating patients for radiation exposure” (BioNumerik Pharmaceuticals, Inc., priority 2001, dated 2007)

Assays:
dogs = experiment: intravenous administration of dimesna to dogs, tolerability; type: in vivo; conditions: intravenously, doses higher than 3750 mg/kg
From the text: (§1) Mesna and dimesna, as well as some analogues of these compounds, have excellent toxicity profiles in mammalian species. However, it is clear from our earlier discoveries that dimesna has a much lower degree of toxicity relative to mesna; this lower degree of toxicity for dimesna imparts additional therapeutic value to this invention for radiation therapy since it is contemplated that chronic or high doses of dimesna will be needed in some circumstances in order to provide adequate prophylaxis for radiation toxicity as well as for treatment of acute or chronic radiation toxicity.

humans = experiment: administration of dimesna to humans, tolerability; type: in vivo; conditions: doses exceeding 15 g/m^2
From the text: as §1

mice = experiment: intravenous administration of dimesna to mice, tolerability; type: in vivo; conditions: intravenously, doses higher than 3750 mg/kg
From the text: as §1

[1] = accepted value, species not stated; cited from earlier work

SMILES | adverse effects (dogs) | adverse effects (humans) | adverse effects (mice) | oral LD50 [1] [mg/kg]
O=S(=O)([O-])CCSSCCS(=O)(=O)[O-].[Na+].[Na+] [Dimesna, disodium 2,2′-dithiobis ethane sulfonate] | no adverse effects | no major adverse effects | no adverse effects | –
[Cl-].[Na+] [common table salt] | – | – | – | 3750
